Source: patent US8188150B2, “Use of beta-aminoalcohols in the treatment of inflammatory disorders and pain” (Biocopea Limited, priority 2006, dated 2012)

Experiments:
[1] = system: TNFα; assay: LPS Mouse Assay, serum TNFα by ELISA; assay type: in vivo, Balb C ByJ mice; conditions: i.p. or oral, 30 minutes before 1 mg/kg LPS i.p.; serum 2 hours after LPS
Description: (§1) 7 week-old Balb C ByJ mice (24-28 g) were administered, either by i.p. (5 ml/kg) or oral (10 ml/kg) administration, with vehicle or test article. 30 minutes later these animals were challenged with an intraperitoneal injection of 1 mg/kg LPS. 2 hours after LPS challenge blood samples were collected under light isoflurane anaesthesia into normal tubes by retro-orbital puncture. Samples were allowed to clot at room temperature and then spun at 6000 g for 3 min at 4° C. Serum was stored at −20° C. until use. Serum TNFα and IL-10 levels were analysed in duplicate by ELISA technique.

[2] = system: IL-10; assay: LPS Mouse Assay, serum IL-10 by ELISA; assay type: in vivo, Balb C ByJ mice; conditions: i.p. or oral, 30 minutes before 1 mg/kg LPS i.p.; serum 2 hours after LPS
Description: as §1

[3] = system: inflammation induced by carrageenan paw injection; assay: Carrageenan Paw Assay; assay type: in vivo, male Wistar rats; conditions: oral gavage, half an hour before 2% carrageenan; paw measured at 1-5 hours
Description: Fasted (18 hour) male Wistar rats (105-130 g) were weighed and a basal mercury plethysmometer reading was taken of the right hind paw by submerging the paw in the mercury up to the tibiotarsal joint. Subsequently, vehicles, reference items and test articles were administered by oral gavage (10 ml/kg). Half an hour after treatment 0.1 ml of 2% carrageenan in 0.9% saline was injected into the subplanatar area of the right hind paw. The right paw was measured again with the plethysmometer at 1, 2, 3, 4 and 5 hours after carrageenan administration.

In the case of `CC(C)(CO)NCC(=O)c1cc(Cl)c(N)c(Cl)c1` [Compound (3), 1-(4-Amino-3,5-dichlorophenyl)-2-(1-hydroxy-2-methylpropan-2-ylamino)ethanone], the “effect on serum TNFα” value [1] is reported as “strong inhibitory effects”, the “effect on serum IL-10” value [2] is reported as “potentiating effects” and the “effect on inflammation induced by carrageenan paw injection” value [3] is reported as “dose-dependant inhibitory effect”.
